The values that follow come from patent publication US12060347B2 (BRISTOL-MYERS SQUIBB COMPANY, priority 2016, dated 2024).

The term IC50 denotes the concentration that inhibits the measured activity by half.

The target in the assay is T1, human PAR4 (Homo sapiens, UniProt Q96RI0).
T1 construct: expressed in transfected cells; host or cells: HEK293 PAR4 Clone 1.2A (BMS Arctic ID 383940)
T1 sequence (Q96RI0 18-385): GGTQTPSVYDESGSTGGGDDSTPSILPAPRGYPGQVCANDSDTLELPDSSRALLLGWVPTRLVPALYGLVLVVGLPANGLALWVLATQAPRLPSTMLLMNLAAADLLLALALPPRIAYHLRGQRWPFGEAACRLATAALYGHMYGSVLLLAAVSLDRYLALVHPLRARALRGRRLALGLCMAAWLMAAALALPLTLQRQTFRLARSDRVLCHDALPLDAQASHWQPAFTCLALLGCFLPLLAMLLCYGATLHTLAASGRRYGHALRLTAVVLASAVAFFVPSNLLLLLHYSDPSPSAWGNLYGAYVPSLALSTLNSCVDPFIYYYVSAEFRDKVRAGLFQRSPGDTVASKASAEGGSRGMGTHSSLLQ
Description: PAR4 FLIPR assay: antagonism of agonist-peptide-induced calcium mobilization in PAR4-expressing HEK293 cells. Type of assay: cell-based. The conditions noted are these: H-Ala-Phe(4-F)-[…]NH2-induced intracellular calcium mobilization, 11-point curves. In general terms: Calcium assays in cells follow changes in intracellular calcium, usually with a dye or a luminescent sensor.
On to `COc1cnc2c(-c3nc4cc(F)c(OC[C@@H](C)OC(=O)Nc5cnc(C(N)=O)nc5)nc4s3)cc(C)cc2n1` [Example 749, (R)-1-((6-fluoro-2-(2-methoxy-7-methylquinoxalin-5-yl)thiazolo[5,4-b]pyridin-5-yl)oxy) propan-2-yl (2-carbamoylpyrimidin-5-yl)carbamate], for which the IC50 came to 4.3 nM.

`COc1cnc2c(-c3nc4cc(F)c(O[C@@H](C)[C@@H](C)OC(=O)Nc5ccc(C(=O)NC[C@H](C)O)nc5)nc4s3)cc(C)cc2n1` [Example 750, (2R,3S)-3-((6-fluoro-2-(2-methoxy-7-methylquinoxalin-5-yl)thiazolo[5,4-b]pyridin-5-yl)oxy)butan-2-yl (6-(((S)-2-hydroxypropyl)carbamoyl)pyridin-3-yl)carbamate]: the IC50 was 1.1 nM.

On to `COc1cnc2c(-c3nc4cc(F)c(O[C@@H](C)[C@@H](C)OC(=O)Nc5cnc(C(=O)NCC(C)(C)O)nc5)nc4s3)cc(C)cc2n1` [Example 751, (2R,3S)-3-((6-fluoro-2-(2-methoxy-7-methylquinoxalin-5-yl)thiazolo[5,4-b]pyridin-5-yl)oxy)butan-2-yl (2-((2-hydroxy-2-methylpropyl)carbamoyl)pyrimidin-5-yl)carbamate], for which the IC50 worked out at 4.7 nM. For the compound `COc1cnc2c(-c3nc4cc(F)c(O[C@@H](C)[C@@H](C)OC(=O)Nc5cnc(C(=O)NC[C@@H](C)O)nc5)nc4s3)cc(C)cc2n1` [Example 752, (2R,3S)-3-((6-fluoro-2-(2-methoxy-7-methylquinoxalin-5-yl)thiazolo[5,4-b]pyridin-5-yl)oxy)butan-2-yl (2-(((R)-2-hydroxypropyl)carbamoyl)pyrimidin-5-yl)carbamate], the IC50 was found to be 14 nM. On to `COc1cnc2c(-c3nc4cc(F)c(O[C@@H](C)[C@@H](C)OC(=O)Nc5cnc(C(=O)NC[C@H](C)O)nc5)nc4s3)cc(C)cc2n1` [Example 753, (2R,3S)-3-((6-fluoro-2-(2-methoxy-7-methylquinoxalin-5-yl)thiazolo[5,4-b]pyridin-5-yl)oxy)butan-2-yl (2-(((S)-2-hydroxypropyl)carbamoyl)pyrimidin-5-yl)carbamate], for which the IC50 turned out to be 12 nM. In the case of `COc1cnc2c(-c3nc4cc(F)c(O[C@@H](C)[C@@H](C)OC(=O)Nc5ccc(C(N)=O)nc5)nc4s3)cc(C)cc2n1` [Example 754, (2R,3S)-3-((6-fluoro-2-(2-methoxy-7-methylquinoxalin-5-yl)thiazolo[5,4-b]pyridin-5-yl)oxy)butan-2-yl (6-carbamoylpyridin-3-yl)carbamate] it was 0.3 nM. `COc1cnc2c(-c3nc4cc(F)c(O[C@@H](C)[C@@H](C)OC(=O)Nc5cnc(C(N)=O)nc5)nc4s3)cc(C)cc2n1` [Example 755, (2R,3S)-3-((6-fluoro-2-(2-methoxy-7-methylquinoxalin-5-yl)thiazolo[5,4-b]pyridin-5-yl)oxy)butan-2-yl (2-carbamoylpyrimidin-5-yl)carbamate]: the IC50 was 0.3 nM. Take `COc1cnc2c(-c3nc4c(C)cc(OCCNS(=O)(=O)c5ccc(C)cc5)nc4s3)cc(C)cc2n1` [Example 762, N-(2-((2-(2-methoxy-7-methylquinoxalin-5-yl)-7-methylthiazolo[5,4-b]pyridin-5-yl)oxy)ethyl)-4-methylbenzenesulfonamide]: the IC50 amounted to 1.4 nM. Consider `COCc1cnc2c(-c3nc4c(C)c(F)c(OC)nc4s3)cc(C)cc2n1` [Example 763, 6-fluoro-5-methoxy-2-(2-(methoxymethyl)-7-methylquinoxalin-5-yl)-7-methylthiazolo[5,4-b]pyridine], for which the IC50 came out at 4 nM. As for `COc1cnc2c(-c3nc4cc(F)c(O[C@@H](C)[C@@H](C)OC(=O)Nc5cnc(CO)nc5)nc4s3)cc(C)cc2n1` [Example 764, (2R,3S)-3-((6-fluoro-2-(2-methoxy-7-methylquinoxalin-5-yl)thiazolo[5,4-b]pyridin-5-yl)oxy)butan-2-yl (2-(hydroxymethyl)pyrimidin-5-yl)carbamate], the IC50 came to 1.7 nM. Turning to `COc1cnc2c(-c3nc4cc(F)c(O[C@@H](C)[C@@H](C)OC(=O)Nc5ccc(C(C)(C)O)nc5)nc4s3)cc(C)cc2n1` [Example 765, (2R,3S)-3-((6-fluoro-2-(2-methoxy-7-methylquinoxalin-5-yl)thiazolo[5,4-b]pyridin-5-yl)oxy)butan-2-yl (6-(2-hydroxypropan-2-yl)pyridin-3-yl)carbamate], the IC50 was determined as 0.8 nM. As for `COc1cnc2c(-c3nc4cc(F)c(OC[C@@H](C)OC(=O)Nc5cnc(CO)nc5)nc4s3)cc(C)cc2n1` [Example 768, (R)-1-((6-fluoro-2-(2-methoxy-7-methylquinoxalin-5-yl)thiazolo[5,4-b]pyridin-5-yl)oxy)propan-2-yl (2-(hydroxymethyl)pyrimidin-5-yl)carbamate], the IC50 came out at 10 nM.

As to `COc1cnc2c(-c3nc4cc(F)c(O[C@@H](C)[C@@H](C)OC(=O)Nc5cnc(C)nc5)nc4s3)cc(Cl)cc2c1` [Example 769, (2R,3S)-3-((2-(6-chloro-3-methoxyquinolin-8-yl)-6-fluorothiazolo[5,4-b]pyridin-5-yl)oxy)butan-2-yl (2-methylpyrimidin-5-yl)carbamate], the IC50 came to 3.2 nM. Take `COc1cnc2c(-c3nc4cc(F)c(OC[C@@H](C)OC(=O)Nc5cnc(C)nc5)nc4s3)cc(Cl)cc2c1` [Example 770, (R)-1-((2-(6-chloro-3-methoxyquinolin-8-yl)-6-fluorothiazolo[5,4-b]pyridin-5-yl)oxy)propan-2-yl (2-methylpyrimidin-5-yl)carbamate]: the IC50 is 1.9 nM.

For `COc1cnc2c(-c3nc4cc(F)c(O[C@@H](C)[C@@H](C)OC(=O)Nc5cnc(C)nc5)cc4s3)cc(F)cc2c1` [Example 772, (2R,3S)-3-((5-fluoro-2-(6-fluoro-3-methoxyquinolin-8-yl)benzo[d]thiazol-6-yl)oxy)butan-2-yl (2-methylpyrimidin-5-yl)carbamate], the IC50 is 1.5 nM. In the case of `COc1cnc2c(-c3nc4cc(F)c(O[C@@H](C)[C@@H](C)OC(=O)Nc5cnc(C)nc5)cc4s3)cc(CO)cc2c1` [Example 773] it was 11 nM; in that of `COc1cnc2c(-c3nc4cc(F)c(O[C@@H](C)[C@@H](C)OC(=O)Nc5cnc(OCCO)nc5)nc4s3)cc(Cl)cc2c1` [Example 774, (2R,3S)-3-((2-(6-chloro-3-methoxyquinolin-8-yl)-6-fluorothiazolo[5,4-b]pyridin-5-yl)oxy) butan-2-yl (2-(2-hydroxyethoxy)pyrimidin-5-yl)carbamate], 1.2 nM. In the case of `COc1cnc2c(-c3nc4cc(F)c(O[C@@H](C)[C@@H](C)OC(=O)Nc5cnc(OCCO)nc5)nc4s3)cc(C)cc2c1` [Example 775, (2R,3S)-3-((6-fluoro-2-(3-methoxy-6-methylquinolin-8-yl)thiazolo[5,4-b]pyridin-5-yl)oxy)butan-2-yl (2-(2-hydroxyethoxy)pyrimidin-5-yl)carbamate], the IC50 was determined as 0.8 nM. In the case of `COc1cnc2c(-c3nc4cc(F)c(O[C@@H](C)[C@@H](C)OC(=O)Nc5cncc(F)c5)nc4s3)cc(Cl)cc2c1` [Example 776, (2R,3S)-3-((2-(6-chloro-3-methoxyquinolin-8-yl)-6-fluorothiazolo[5,4-b]pyridin-5-yl)oxy)butan-2-yl (5-fluoropyridin-3-yl)carbamate], the IC50 is 2.5 nM.
